Measured values: PubChem BioAssay (NCI)
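Cultured in 96-well plates, cells were exposed to test compound for 48 hours across five concentrations. GI50 is the concentration that inhibits growth by half. TGI denotes the concentration required for complete inhibition of growth.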

Key:
Test in all cases: NCI anticancer screen, dose series, 48 h
ACHN renal = system: ACHN renal
LOX IMVI melanoma = system: LOX IMVI melanoma
SNB-19 CNS = system: SNB-19 CNS
HOP-92 NSCLC = system: HOP-92 NSCLC
MOLT-4 leukemia = system: MOLT-4 leukemia
SW-620 colon = system: SW-620 colon
OVCAR-5 ovarian = system: OVCAR-5 ovarian
RXF 393 renal = system: RXF 393 renal
DLD-1 colon = system: DLD-1 colon
LXFL 529 NSCLC = system: LXFL 529 NSCLC

Row | SMILES | GI50 (ACHN renal) [µM] | TGI (ACHN renal) [µM] | GI50 (LOX IMVI melanoma) [µM] | TGI (LOX IMVI melanoma) [µM] | GI50 (SNB-19 CNS) [µM] | TGI (SNB-19 CNS) [µM] | GI50 (HOP-92 NSCLC) [µM] | TGI (HOP-92 NSCLC) [µM] | GI50 (MOLT-4 leukemia) [µM] | TGI (MOLT-4 leukemia) [µM] | GI50 (SW-620 colon) [µM] | TGI (SW-620 colon) [µM] | GI50 (OVCAR-5 ovarian) [µM] | TGI (OVCAR-5 ovarian) [µM] | GI50 (RXF 393 renal) [µM] | TGI (RXF 393 renal) [µM] | GI50 (DLD-1 colon) [µM] | TGI (DLD-1 colon) [µM] | GI50 (LXFL 529 NSCLC) [µM] | TGI (LXFL 529 NSCLC) [µM]
1 | Cc1cc2c3c(nc4ccccc42)C(=O)c2cccnc2-c3n1 | 0.0327 | 1.45 | 0.144 | 0.524 | 0.255 | 1.66 | 0.941 | 8.52 | 0.47 | 5.69 | 0.17 | 1.01 | 1.09 | 2.33 | 1.17 | 3.19 |  |  |  | 
2 | CC(=O)[CH-]C(=O)c1ccccc1.CC(=O)[CH-]C(=O)c1ccccc1.CC(=O)[CH-]C(=O)c1ccccc1.[Cl-].[Hf+4] | 31.3 | > 100 | 14.4 | 92.2 |  |  | 18.9 | 50.4 | 15.4 | > 100 | 52.2 | > 100 | 22.8 | 71.8 | 47.4 | > 100 | 25.8 | > 100 | 39.4 | > 100
3 | O=C(O)C1CC[N-]CC1.O=C(O)C1CC[N-]CC1.[NH2-].[NH2-].[Pt+4] | > 100 | > 100 | > 100 | > 100 | > 100 | > 100 | > 100 | > 100 | > 100 | > 100 | > 100 | > 100 | > 100 | > 100 | > 100 | > 100 |  |  |  | 
4 | COC12OCCN(C)C1=CC(=O)C1N=NCC12 (stereo not drawn) |  |  |  | > 100 |  |  |  | > 100 |  | > 100 |  | > 100 |  |  |  | > 100 |  | > 100 |  | > 100
5 | COc1ccc(-c2cc(-c3ccc(Cl)cc3)nc(SCCCC(=O)NO)n2)cc1OC | 0.364 | 2.04 | 0.345 | 1.44 | 1.57 | 4.43 | 1.76 | 5.33 | 0.855 | 12.5 | 0.578 | 2.76 | 0.931 | 4.36 | 0.417 | 1.66 |  |  |  | 
6 | O=C(CC(=O)N1N=C(n2ccc3ccccc32)CC1c1ccccc1)Nc1ccccc1Cl (stereo not drawn) |  | > 100 |  | > 100 |  | > 100 |  | > 100 |  | > 100 |  | > 100 |  |  |  | > 100 |  |  |  | > 100
7 | O=c1[nH]c(-c2ccccc2)nc2cc([N+](=O)[O-])c(/C(Cl)=C/c3ccccc3)cc12 |  | > 100 |  |  |  | > 100 |  | 35.6 |  | > 100 |  | > 100 |  | > 100 |  | 72.7 |  |  |  | 78.4
8 | CN1CCC(=C(c2ccc(Cl)cc2)c2ccccn2)CC1 | > 100 | > 100 | 56.7 | > 100 | > 100 | > 100 | 16.7 | > 100 | > 100 | > 100 | > 100 | > 100 | > 100 | > 100 | 54.5 | > 100 |  |  |  | 
9 | N#CC(Cl)CS(=O)(=O)c1ccccc1 (stereo not drawn) |  | 9.96 |  | 22 |  | 35.1 |  | 4.1 | 0.0561 | 3.62 |  | 3.75 |  | 35.3 |  | 6.31 |  | 3.98 |  | 
10 | COc1c(CC(C)=O)c2ccccc2n1C(C)=O |  | > 100 |  |  |  | > 100 |  | > 100 |  | > 100 |  | > 100 |  |  |  | > 100 |  | > 100 |  | > 100
11 | CC(=O)CCC[C@@H](C)[C@@H]1O[C@H]([C@@]2(C)CCC(=O)O2)CC2[C@H]1OC(=O)C21CC1 (stereo partly drawn) | > 100 | > 100 | 77.1 | > 100 | > 100 | > 100 | > 100 | > 100 | 75.5 | > 100 | > 100 | > 100 | > 100 | > 100 | > 100 | > 100 |  |  |  | 
12 | COC(=O)C1=C(C)N(NC(N)=O)C2(N)N(NC(N)=O)C(C)=C(C(=O)OC)C12C#N (stereo not drawn) |  | > 100 |  | > 100 |  | > 100 |  | > 100 |  | > 100 |  | > 100 |  | > 100 |  |  |  | > 100 |  | 
13 | COc1ccc(/C=C/C(=O)C(=O)/C=C/c2ccc(OC)c(OC)c2)cc1OC | 2.05 | 5.4 | 1.46 | 3.21 | 3.11 | 23.3 | 15.1 | 82.8 | 2.06 | 19.3 | 1.08 | 3.31 | 2.5 | 8.08 | 1.46 | 3.04 |  |  |  | 
14 | CC(=O)NNc1nc(C)c(C(=O)/C=C/c2ccc(N(C)C)cc2)s1 |  | > 100 |  | > 100 |  |  |  | > 100 |  | > 100 |  | > 100 |  | > 100 |  | > 100 |  | > 100 |  | 
15 | Cc1[nH]c(N)nc(=S)c1CCCNc1ccccc1 |  | > 100 |  | > 100 |  | > 100 |  | > 100 |  | 21.1 |  | > 100 |  | > 100 |  | > 100 |  |  |  | 
16 | COc1ccc(N=Nc2c(-c3ccccc3)nn(C(=O)CC(=O)Nc3ccc(OC)cc3)c2-c2ccccc2)cc1 |  | > 100 |  | > 100 |  | > 100 |  | 50 |  | > 100 |  | > 100 |  | > 100 |  |  |  | > 100 |  | > 100
17 | NC(N)=NCCCC(Nc1c2ccccc2nc2ccccc12)C(=O)O (stereo not drawn) |  | > 100 |  | > 100 |  |  |  | > 100 |  | > 100 |  | > 100 |  | > 100 |  | > 100 |  | > 100 |  | > 100
18 | C=C1CC[C@@](C)(c2cc(Br)c(C)cc2OC(C)=O)[C@H]1C | 13.7 | 27.3 | 14.8 | 31 | 15.5 | 31.2 | 3.49 | 16.2 | 9.99 | 24.8 | 11.8 | 24.6 | 15.1 | 28.7 | 14.8 | 32.5 |  |  |  | 
